Patent publication US20240238423A9, “TETRAHYDROISOQUINOLINE HETEROBIFUNCTIONAL BCL-XL DEGRADERS” (Treeline Biosciences, Inc., priority 2022, published 2024)
Like-named read-outs stand apart in the source and are kept apart here.

Target: T1, Human BCL-XL protein (N-terminal HiBiT tagged BCL-XL in HT1080 cells) (Homo sapiens, UniProt Q07817)
T1 construct: expressed in transfected cells; host or cells: HT-1080 (ATCC CCL-121), stably transduced with lentivirus pLV-UBC-N-HiBiT-BCL-XL-PGK-puro and selected with puromycin
T1 sequence (Q07817 whole entry): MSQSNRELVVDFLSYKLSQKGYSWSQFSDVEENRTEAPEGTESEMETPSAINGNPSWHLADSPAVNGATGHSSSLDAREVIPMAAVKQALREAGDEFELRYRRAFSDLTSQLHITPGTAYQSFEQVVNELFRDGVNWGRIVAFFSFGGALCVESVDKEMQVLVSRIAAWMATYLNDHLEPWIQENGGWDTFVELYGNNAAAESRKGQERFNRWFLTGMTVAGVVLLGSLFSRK
Assay: HiBiT based degradation assay
Format: cell-based
Settings: HT1080 cells expressing HiBiT-BCL-XL; for Ymin (24 h) / Ymin (6 h): BCL-XL degradation normalized with DMSO control; for DC50: BCL-XL degradation
Outline: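 This HiBiT degradation assay measured loss of BCL-XL in HT1080 cells that stably express an N-terminal HiBiT-BCL-XL fusion delivered by lentivirus. Cells were added to compound-spotted 384-well plates, and luminescence was read on a PHERAstar FSX reader. Signal was expressed relative to DMSO controls, curves were fitted by four-parameter logistic regression, and for hook-shaped curves the Ymin point served as the bottom plateau when calculating EC50.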

SMILES | Ymin (24 h) | DC50 (24 h, read-out: EC50 (24 h)) | Ymin (6 h) | DC50 (6 h, read-out: EC50 (6 h))
Cc1c(OCCC(F)(F)C2CCN(CC(=O)Nc3cccc4c(C5CCC(=O)NC5=O)nn(C)c34)CC2)cccc1-c1ccc(N2CCc3cccc(C(=O)Nc4nc5ccccc5s4)c3C2)nc1C(=O)O (stereo not shown) [Compound 196, 6-(8-(benzo[d]thiazol-2-ylcarbamoyl)-3,4-dihydroisoquinolin-2(1H)-yl)-3-(3-(3-(1-(2-((3-(2,6-dioxopiperidin-3-yl)-1-methyl-1H-indazol-7-yl)amino)-2-oxoethyl)piperidin-4-yl)-3,3-difluoropropoxy)-2-methylphenyl)picolinic acid] | B (50% ≤ Ymin < 70%) | 100 to 1000 nM |  | 
Cc1c(OCCC[C@H]2CCN(CC(=O)Nc3cccc4c(C5CCC(=O)NC5=O)nn(C)c34)CC2(F)F)cccc1-c1ccc(N2CCc3cccc(C(=O)Nc4nc5ccccc5s4)c3C2)nc1C(=O)O (stereo partly drawn) [Compound 197a, 6-(8-(benzo[d]thiazol-2-ylcarbamoyl)-3,4-dihydroisoquinolin-2(1H)-yl)-3-(3-(3-((4S)-1-(2-((3-(2,6-dioxopiperidin-3-yl)-1-methyl-1H-indazol-7-yl)amino)-2-oxoethyl)-3,3-difluoropiperidin-4-yl)propoxy)-2-methylphenyl)picolinic acid] | B (50% ≤ Ymin < 70%) | 100 to 1000 nM |  | 
Cc1c(OCCC[C@@H]2CCN(CC(=O)Nc3cccc4c(C5CCC(=O)NC5=O)nn(C)c34)CC2(F)F)cccc1-c1ccc(N2CCc3cccc(C(=O)Nc4nc5ccccc5s4)c3C2)nc1C(=O)O (stereo partly drawn) [Compound 197b, 6-(8-(benzo[d]thiazol-2-ylcarbamoyl)-3,4-dihydroisoquinolin-2(1H)-yl)-3-(3-(3-((4R)-1-(2-((3-(2,6-dioxopiperidin-3-yl)-1-methyl-1H-indazol-7-yl)amino)-2-oxoethyl)-3,3-difluoropiperidin-4-yl)propoxy)-2-methylphenyl)picolinic acid] | B (50% ≤ Ymin < 70%) | 100 to 1000 nM |  | 
Cc1c(OCCN2CCN(CC3CCN(c4ccc5c(C6CCC(=O)NC6=O)nn(C)c5c4)CC3)CC2)cccc1-c1ccc(N2CCc3cccc(C(=O)Nc4nc5ccccc5s4)c3C2)nc1C(=O)O (stereo not shown) [Compound 198, 6-(8-(benzo[d]thiazol-2-ylcarbamoyl)-3,4-dihydroisoquinolin-2(1H)-yl)-3-(3-(2-(4-((1-(3-(2,6-dioxopiperidin-3-yl)-1-methyl-1H-indazol-6-yl)piperidin-4-yl)methyl)piperazin-1-yl)ethoxy)-2-methylphenyl)picolinic acid] | A (Ymin < 50%) | < 100 nM |  | 
Cc1c(Oc2ccc(CC(F)(F)CN3CCN(c4cccc5c(C6CCC(=O)NC6=O)nn(C)c45)CC3)cc2)cccc1-c1ccc(N2CCc3cccc(C(=O)Nc4nc5ccccc5s4)c3C2)nc1C(=O)O (stereo not shown) [Compound 201, 6-[8-(1,3-benzothiazol-2-ylcarbamoyl)-3,4-dihydro-1H-isoquinolin-2-yl]-3-[3-[4-[3-[4-[3-(2,6-dioxo-3-piperidyl)-1-methyl-indazol-7-yl]piperazin-1-yl]-2,2-difluoro-propyl]phenoxy]-2-methyl-phenyl]pyridine-2-carboxylic acid] | A (Ymin < 50%) | 1000 to 10000 nM | B (50% ≤ Ymin < 70%) | 1000 to 10000 nM
Cc1c(OCCCC[C@H]2CCCN(CC(=O)Nc3ccc4c(C5CCC(=O)NC5=O)nn(C)c4c3)C2)cccc1-c1ccc(N2CCc3cccc(C(=O)Nc4nc5ccccc5s4)c3C2)nc1C(=O)O (stereo partly drawn) [Compound 202a, 6-[8-(1,3-benzothiazol-2-ylcarbamoyl)-3,4-dihydro-1H-isoquinolin-2-yl]-3-[3-[4-[(3S)-1-[2-[[3-(2,6-dioxo-3-piperidyl)-1-methyl-indazol-6-yl]amino]-2-oxo-ethyl]-3-piperidyl]butoxy]-2-methyl-phenyl]pyridine-2-carboxylic acid] | A (Ymin < 50%) | < 100 nM |  | 
Cc1c(OCCCC[C@@H]2CCCN(CC(=O)Nc3ccc4c(C5CCC(=O)NC5=O)nn(C)c4c3)C2)cccc1-c1ccc(N2CCc3cccc(C(=O)Nc4nc5ccccc5s4)c3C2)nc1C(=O)O (stereo partly drawn) [Compound 202b, 6-[8-(1,3-benzothiazol-2-ylcarbamoyl)-3,4-dihydro-1H-isoquinolin-2-yl]-3-[3-[4-[(3R)-1-[2-[[3-(2,6-dioxo-3-piperidyl)-1-methyl-indazol-6-yl]amino]-2-oxo-ethyl]-3-piperidyl]butoxy]-2-methyl-phenyl]pyridine-2-carboxylic acid] | A (Ymin < 50%) | < 100 nM |  | 
Cc1c(OCCCCC2CCN(CC(=O)Nc3ccc4c(C5CCC(=O)NC5=O)nn(C)c4c3)CC2)cccc1-c1ccc(N2CCc3cccc(C(=O)Nc4nc5ccccc5s4)c3C2)nc1C(=O)O (stereo not shown) [Compound 203, 6-(8-(benzo[d]thiazol-2-ylcarbamoyl)-3,4-dihydroisoquinolin-2(1H)-yl)-3-(3-(4-(1-(2-((3-(2,6-dioxopiperidin-3-yl)-1-methyl-1H-indazol-6-yl)amino)-2-oxoethyl)piperidin-4-yl)butoxy)-2-methylphenyl)picolinic acid] | A (Ymin < 50%) | < 100 nM | B (50% ≤ Ymin < 70%) | < 100 nM
Cc1c(O[C@H]2CC[C@H](CCCCN3CCN(c4cccc5c(C6CCC(=O)NC6=O)nn(C)c45)CC3)CC2)cccc1-c1ccc(N2CCc3cccc(C(=O)Nc4nc5ccccc5s4)c3C2)nc1C(=O)O (stereo partly shown) [Compound 204a, 6-(8-(benzo[d]thiazol-2-ylcarbamoyl)-3,4-dihydroisoquinolin-2(1H)-yl)-3-(3-(((1s,4r)-4-(4-(4-(3-(2,6-dioxopiperidin-3-yl)-1-methyl-1H-indazol-7-yl)piperazin-1-yl)butyl)cyclohexyl)oxy)-2-methylphenyl)picolinic acid] | B (50% ≤ Ymin < 70%) | < 100 nM |  | 
Cc1c(OCCCCCCCCN2CCN(c3ccc4c(C5CCC(=O)NC5=O)nn(C)c4c3)CC2)cccc1-c1ccc(N2CCc3cccc(C(=O)Nc4nc5ccccc5s4)c3C2)nc1C(=O)O (stereo not shown) [Compound 205, 6-[8-(1,3-benzothiazol-2-ylcarbamoyl)-3,4-dihydro-1H-isoquinolin-2-yl]-3-[3-[8-[4-[3-(2,6-dioxo-3-piperidyl)-1-methyl-indazol-6-yl]piperazin-1-yl]octoxy]-2-methyl-phenyl]pyridine-2-carboxylic acid] | A (Ymin < 50%) | < 100 nM | B (50% ≤ Ymin < 70%) | < 100 nM
Cc1c(OCCCCCCCN2CCN(c3cccc4c(C5CCC(=O)NC5=O)nn(C)c34)CC2)cccc1-c1ccc(N2CCc3cccc(C(=O)Nc4nc5ccccc5s4)c3C2)nc1C(=O)O (stereo not shown) [Compound 206, 6-[8-(1,3-benzothiazol-2-ylcarbamoyl)-3,4-dihydro-1H-isoquinolin-2-yl]-3-[3-[7-[4-[3-(2,6-dioxo-3-piperidyl)-1-methyl-indazol-7-yl]piperazin-1-yl]heptoxy]-2-methyl-phenyl]pyridine-2-carboxylic acid] | B (50% ≤ Ymin < 70%) | < 100 nM | C (Ymin ≥ 70%) | 1000 to 10000 nM
Cc1c(OCCC[C@@H]2CCCN(CC(=O)Nc3ccc4c(C5CCC(=O)NC5=O)nn(C)c4c3)C2)cccc1-c1ccc(N2CCc3cccc(C(=O)Nc4nc5ccccc5s4)c3C2)nc1C(=O)O (stereo partly drawn) [Compound 207a, 6-(8-(benzo[d]thiazol-2-ylcarbamoyl)-3,4-dihydroisoquinolin-2(1H)-yl)-3-(3-(3-((3S)-1-(2-((3-(2,6-dioxopiperidin-3-yl)-1-methyl-1H-indazol-6-yl)amino)-2-oxoethyl)piperidin-3-yl)propoxy)-2-methylphenyl) picolinic acid] | A (Ymin < 50%) | < 100 nM |  | 
Cc1c(OCCC[C@H]2CCCN(CC(=O)Nc3ccc4c(C5CCC(=O)NC5=O)nn(C)c4c3)C2)cccc1-c1ccc(N2CCc3cccc(C(=O)Nc4nc5ccccc5s4)c3C2)nc1C(=O)O (stereo partly drawn) [Compound 207b, 6-(8-(benzo[d]thiazol-2-ylcarbamoyl)-3,4-dihydroisoquinolin-2(1H)-yl)-3-(3-(3-((3R)-1-(2-((3-(2,6-dioxopiperidin-3-yl)-1-methyl-1H-indazol-6-yl)amino)-2-oxoethyl)piperidin-3-yl)propoxy)-2-methylphenyl)picolinic acid] | A (Ymin < 50%) | < 100 nM | B (50% ≤ Ymin < 70%) | < 100 nM
Cc1c(Oc2ccc(CCN3CCN(c4ccc5c(C6CCC(=O)NC6=O)nn(C)c5c4)CC3)cc2)cccc1-c1ccc(N2CCc3cccc(C(=O)Nc4nc5ccccc5s4)c3C2)nc1C(=O)O (stereo not shown) [Compound 208, 6-[8-(1,3-benzothiazol-2-ylcarbamoyl)-3,4-dihydro-1H-isoquinolin-2-yl]-3-[3-[4-[2-[4-[3-(2,6-dioxo-3-piperidyl)-1-methyl-indazol-6-yl]piperazin-1-yl]ethyl]phenoxy]-2-methyl-phenyl]pyridine-2-carboxylic acid] | A (Ymin < 50%) | < 100 nM |  | 
Cc1c(OCC(F)(F)CN2C[C@@H](C)N(CC(=O)Nc3cccc4c(C5CCC(=O)NC5=O)nn(C)c34)[C@@H](C)C2)cccc1-c1ccc(N2CCc3cccc(C(=O)Nc4nc5ccccc5s4)c3C2)nc1C(=O)O (stereo partly drawn) [Compound 209a, 6-[8-(1,3-benzothiazol-2-ylcarbamoyl)-3,4-dihydro-1H-isoquinolin-2-yl]-3-[3-[3-[(3R,5S)-4-[2-[[3-(2,6-dioxo-3-piperidyl)-1-methyl-indazol-7-yl]amino]-2-oxo-ethyl]-3,5-dimethyl-piperazin-1-yl]-2,2-difluoro-propoxy]-2-methyl-phenyl]pyridine-2-carboxylic acid] | B (50% ≤ Ymin < 70%) | 100 to 1000 nM |  | 
